In patent publication US8980335B2, “Use of organic acids and essential oils in animal feeding” (DSM IP Assets B.V., priority 2007, dated 2015):

What was measured:
broiler chickens = experiment: Growth performance trial with broiler chickens (day 8 to day 29); type: in vivo, chickens (ROSS PM3); settings: for Feed conversion (g feed/g gain) / Feed conversion relative to control (control 100.0) / Feed intake (g/bird) / Feed intake relative to control (control 100.0) / Weight gain (g/bird) / Weight gain relative to control (control 100.0): Day 8-29
Experimental: A growth performance trial with broiler chickens was performed from day 8 to day 29. The chickens were housed in wire-floored battery cages. From day-old until day 8, the chickens were fed a pre-experimental diet based on wheat, maize and soybean meal. In the experimental period (day 8 to 29) the chickens received diets based on wheat, rye and soybean meal (composition see Table 1). Groups of birds were weighed on days 8, 15, 22 and 29. The feed consumption for the intermediate periods was determined and body weight gain and feed conversion ratio were calculated.
Beside an un-supplemented control treatment and a positive control containing 10 mg of the antibiotic Avilamycin per kg feed, benzoic acid (VevoVitall) was included at 500 mg per kg feed. In addition, per kg feed, combinations of 250 mg benzoic acid and 50 mg of the composition comprising thymol, eugenol and piperine (herein abbreviated by TEP) as well as either 500 mg benzoic acid and 25 mg TEP or 500 mg benzoic acid and 50 mg TEP were tested, respectively.

pig = settings: cited from earlier work
poultry = settings: cited from earlier work

| Structure (SMILES) | Improvement in weight gain compared to the control (broiler chickens; Avilamycin 10 mg per kg feed) [%] | Improvement of feed conversion (FCR) compared to the negative control (broiler chickens; Avilamycin 10 mg per kg feed) [%] | Feed conversion (g feed/g gain) (broiler chickens; dose 10 mg/kg feed) | Feed conversion relative to control (control 100.0) (broiler chickens; dose 10 mg/kg feed) | Feed intake (g/bird) (broiler chickens; dose 10 mg/kg feed) | Feed intake relative to control (control 100.0) (broiler chickens; dose 10 mg/kg feed) | Weight gain (g/bird) (broiler chickens; dose 10 mg/kg feed) | Weight gain relative to control (control 100.0) (broiler chickens; dose 10 mg/kg feed) | Feed conversion (g feed/g gain) (broiler chickens; dose 500 mg/kg feed) | Feed conversion relative to control (control 100.0) (broiler chickens; dose 500 mg/kg feed) | Feed intake (g/bird) (broiler chickens; dose 500 mg/kg feed) | Feed intake relative to control (control 100.0) (broiler chickens; dose 500 mg/kg feed) | Weight gain (g/bird) (broiler chickens; dose 500 mg/kg feed) | Weight gain relative to control (control 100.0) (broiler chickens; dose 500 mg/kg feed) | Improvement in weight gain compared to the control (broiler chickens; VevoVitall alone at 500 mg/kg) [%] | Dosage in feed at which undesired adverse effects occur (pig) [mg/kg pig feed] | Dosage in feed at which undesired adverse effects occur (poultry) [mg/kg poultry feed] |
| --- | --- | --- | --- | --- | --- | --- | --- | --- | --- | --- | --- | --- | --- | --- | --- | --- | --- |
| COC[C@H]1O[C@@H](OC2OC[C@@H]3O[C@]4(O[C@H]3[C@H]2OC(=O)C(C)C)O[C@H](C)[C@@](O)(C(C)=O)[C@@H]2OCO[C@H]24)[C@@H](OC)[C@@H](O)[C@@H]1O[C@@H]1O[C@H](C)[C@H](OC)[C@H](O[C@H]2C[C@@]3(C)OC4(C[C@@H](O)[C@H](O[C@H]5C[C@@H](O)[C@H](OC(=O)c6c(C)c(Cl)c(O)c(Cl)c6OC)[C@@H](C)O5)[C@@H](C)O4)O[C@@H]3[C@@H](C)O2)[C@H]1O (some centres unmarked) [Avilamycin] | 8.7 | 4.3 | 2.008 ± 0.052 | 95.7 | 2533 ± 199.6 | 104.1 | 1261 ± 76.8 | 108.7 | – | – | – | – | – | – | – | – | – |
| O=C(O)c1ccccc1 [VevoVitall, benzoic acid] | – | – | – | – | – | – | – | – | 2.117 ± 0.093 | 100.8 | 2538 ± 309.6 | 104.3 | 1196 ± 103.0 | 103.1 | 3 | > 10000 | > 5000 |
